Where a name gives a salt, the structure may show the parent alone.

Data on ten compounds can be found in patent US4367237A, “Prostacyclin analogues” (priority 1978, dated 1983).

In one data set the test system is stress ulceration. Put plainly: GUI (Inhibitory activity on gastric ulceration), stress ulceration. The class given is in vivo, rat. To be noted: stress ulceration of rats, oral, water bath 19° C. for 6 hours. The procedure:
(§1) The results of standard laboratory tests are shown below in Table 1, wherein the various activities are shown relative to PGE1.
The compounds produce an inhibition of stress ulceration by oral administration in the stress ulceration of rats produced according to the method of Takagi and Okabe [Jap. J. Pharmc., 18, 9-18 (1968)], i.e. by soaking rats in a water bath at 19° C. for 6 hours.

A further data set deals with blood pressure. Nature of the data set: BP (Hypotensive activity). The class given is in vivo. To be noted: intravenous, allobarbital-anaesthetised dog.
Text: as §1
The compounds produce falls in blood pressure when administered intravenously to the allobarbital-anaesthetised dog.

In data set [1] the test system is platelet-rich plasma of rats. Nature of the data set: PAI (Inhibitory activity on blood platelet aggregation), adenosine diphosphate-induced. It is filed as cell-based, rat. The settings on record: 50% inhibition of ADP-induced aggregation.
For another data set, the system named is uterine contraction. Nature of the data set: UCA (Uterine contraction activity). It is filed as in vivo, pregnant female rat. To be noted: for UCA (Uterine contraction activity), relative to PGE1: pregnant female rat, intravenous, 20th day of gestation.
Text: as §1
The compounds stimulate uterine contraction in the pregnant female rat when administered intravenously on the 20th day of gestation.
Moreover, other compounds of the present invention [prepared as hereafter described in the Examples] other than the above compounds for which results are given in Table 1 stimulate uterine contraction when administered intravenously to the pregnant female rat on the 20th day of gestation at doses of 0.2-100 μg/kg animal body weight.

Data set [2] can be described thus: LD50 (Acute toxicity tests). The settings on record: mouse, in vivo, iv; injected intravenously into mice. The procedure:
The compounds are injected intravenously into mice.

Data set [3] concerns women in the expired stage of pregnancy. Put plainly: Clinical: induction of labour. The class given is in vivo, human. To be noted: pessary 0.2 mg, vaginal, one to three times at one- to three-hour intervals; five women. The procedure:
One pessary containing 0.2 mg of (13E)-(6RS,9α,11α,15S)-6,9-epithio-11,15-dihydroxyprost-13-enoic acid methyl ester (prepared as described in Example 21) was administered vaginally one to three times at one- to three-hour intervals to five women aged from twenty to forty years in the expired stage of pregnancy.

The subject of a further data set is gastric acid secretion. Nature of the data set: GSI (Inhibitory activity on gastric acid secretion). The settings on record: increase in gastric acid pH from 2.0-2.5 to at least 4.0 in 50% of pentagastrin-treated rats, perfused intravenously. The class given is in vivo.
Text: as §1
The compounds produce an increase in gastric acid pH from 2.0-2.5 to at least 4.0 in 50% of pentagastrin-treated rats when perfused intravenously.

The subject of data set [4] is women in the early stages of pregnancy. Nature of the data set: Clinical: termination of pregnancy. It is filed as in vivo, human. The procedure:
One pessary containing 1 mg of (13E)-(6RS,9α,11α,15S)-6,9-epithio-11,15-dihydroxyprost-13-enoic acid methyl ester (prepared as described in Example 21) was administered vaginally two to five times at one- to three-hour intervals to fifteen women aged from twenty to forty years in the early stages of pregnancy.
One to three tablets containing 0.25 mg of (13E)-(6RS,9α,11α,15R)-6,9-epithio-11,15-dihydroxy-16,16-dimethylprost-13-enoic acid methyl ester (prepared as described in Example 17) were administered orally one to five times to seven women aged from twenty-five to thirty years in the early stages of pregnancy.

The test system of data set [5] is women two or three days before the expected date of menstruation. Put plainly: Clinical: beginning of menstruation. The class given is in vivo, human. The procedure:
One pessary containing 1 mg of (13E)-(6RS,9α,11α,15S)-6,9-epithio-11,15-dihydroxyprost-13-enoic acid methyl ester (prepared as described in Example 21) was administered vaginally one to five times at one- to three-hour intervals to fifteen women aged from twenty to forty years two or three days before the expected date of menstruation.
One pessary containing 0.5 mg of (13E)-(6RS,9α,11α,15R)-6,9-epithio-11,15-dihydroxy-16,16-dimethylprost-13-enoic acid methyl ester (prepared as described in Example 21) was administered vaginally one to three times at one- to three-hour intervals to three women aged twenty or twenty-one years two or three days before the expected date of menstruation.
One to three tablets containing 0.5 mg of (13E)-(6RS,9α,11α,15S)-6,9-epithio-11,15-dihydroxyprost-13-enoic acid methyl ester (prepared as described in Example 17) were administered orally to five women aged from twenty to twenty-two years two or three days before the expected date of menstruation.

In data set [6] the test system is human blood platelet aggregation. To be noted: J.C.S. Chem. Comm., 375 (1978); cited from earlier work.
For data set [7], the system named is isolated cat coronary artery. The settings on record: J.C.S. Chem. Comm., 375 (1978); cited from earlier work.
Another data set deals with diarrhoea. Nature of the data set: Diarrhoea (Diarrhoea-producing activity). To be noted: diarrhoea in 50% of mice, oral. The class given is in vivo.
Text: as §1
The compounds produce diarrhoea in 50% of mice by oral administration.

The next data set relates to artery. To be noted: cited from earlier work.
The subject of data set [8] is blood platelet aggregation of the human. The settings on record: cited from earlier work.
The subject of the next data set is blood platelets. The settings on record: cited from earlier work.

Broadly, the LD50 is the dose expected to kill half of the subjects tested. Take `CCCCC[C@H](O)/C=C/[C@@H]1[C@H]2CC(CCCCC(=O)OC)S[C@H]2C[C@H]1O` (mixture of isomers) [A, (13E)-(6RS,9α,11α,15S)-6,9-epithio-11,15-dihydroxyprost-13-enoic acid methyl ester]: in the data set with stress ulceration, the “GUI (Inhibitory activity on gastric ulceration), relative to PGE1” value is on record as less than 0.5. For the same compound, in the data set on blood pressure, the “BP (Hypotensive activity), relative to PGE1” value (“BP … relative to PGE1” below) is recorded as 0.2. For the same compound, in [1], the “PAI (Inhibitory activity on blood platelet aggregation), relative to PGE1” value is listed as 0.03. In addition, the “UCA (Uterine contraction activity), relative to PGE1” value (“UCA … relative to PGE1” for short) in the data set on uterine contraction was determined as 11.5. The 50% lethal dose (LD50) in [2] is 100 mg/kg. In addition, the induction of labour entry in data set [3] is “confirmed in all the cases”. Further, in the data set on gastric acid secretion, the “GSI (Inhibitory activity on gastric acid secretion), relative to PGE1” value is less than 0.1. Moreover, the termination of pregnancy entry in data set [4] (pessary 1 mg, vaginal, two to five times, fifteen women) is recorded as “confirmed in all the cases”. Also, the beginning of menstruation entry in [5] (one to three tablets 0.5 mg, oral, five women) was “confirmed in all the cases”; in data set [5] (pessary 1 mg, vaginal, one to five times, fifteen women), “confirmed in all the cases”. Moreover, the “activity on human blood platelet aggregation” value in data set [6] is on record as “inhibitory activity on human blood platelet aggregation”. Besides, in data set [7], the “activity on isolated cat coronary artery” value is “vasoconstricting activity on isolated cat coronary artery”. Further, the “Diarrhoea (Diarrhoea-producing activity), relative to PGE1” value (shortened to “Diarrhoea … relative to PGE1”) with diarrhoea was determined as 0.072.
As to `CCCCC[C@H](O)/C=C/[C@@H]1[C@H]2CC(CCCCC(=O)O)S[C@H]2C[C@H]1O` (mixture of isomers) [B, (13E)-(6RS,9α,11α,15S)-6,9-epithio-11,15-dihydroxyprost-13-enoic acid], the “GUI (Inhibitory activity on gastric ulceration), relative to PGE1” value in the data set with stress ulceration is reported as less than 0.5. In addition, the “BP … relative to PGE1” value in the data set on blood pressure is listed as 0.2. The “PAI (Inhibitory activity on blood platelet aggregation), relative to PGE1” value in [1] is reported as 0.038. Further, the “stimulatory activity on uterine contraction (in words)” value in the data set on uterine contraction (rat, in vivo) was “selective strong stimulatory activity on uterine contraction”. The “UCA … relative to PGE1” value in the data set on uterine contraction is listed as 10. The “GSI (Inhibitory activity on gastric acid secretion), relative to PGE1” value in the data set on gastric acid secretion is given as less than 0.1. Besides, in [6], the “activity on human blood platelet aggregation” value is reported as “inhibitory activity on human blood platelet aggregation”. For the same compound, in [7], the “activity on isolated cat coronary artery” value is given as “vasoconstricting activity on isolated cat coronary artery”. The “Diarrhoea … relative to PGE1” value in the data set with diarrhoea is less than 0.1.
With `CCCCC(C)(C)[C@H](O)/C=C/[C@@H]1[C@H]2CC(CCCCC(=O)OC)S[C@H]2C[C@H]1O` (mixture of isomers) [D, (13E)-(6RS,9α,11α,15R)-6,9-epithio-11,15-dihydroxy-16,16-dimethylprost-13-enoic acid methyl ester], the “GUI (Inhibitory activity on gastric ulceration), relative to PGE1” value in the data set on stress ulceration is listed as less than 0.5. Also, the “BP … relative to PGE1” value in the data set with blood pressure is listed as less than 0.1. Further, the “PAI (Inhibitory activity on blood platelet aggregation), relative to PGE1” value in data set [1] was found to be 0.006. The “UCA … relative to PGE1” value in the data set with uterine contraction is 23.1. This compound also yielded a 50% lethal dose (LD50) in data set [2] of 25 mg/kg. For the same compound, in the data set on gastric acid secretion, the “GSI (Inhibitory activity on gastric acid secretion), relative to PGE1” value is reported as less than 0.3. Moreover, the termination of pregnancy result in data set [4] (one to three tablets 0.25 mg, oral, one to five times, seven women) is listed as “confirmed in all the cases”. Moreover, the beginning of menstruation result in data set [5] (pessary 0.5 mg, vaginal, one to three times, three women) is “confirmed in all the cases”. In the data set on diarrhoea, the “Diarrhoea … relative to PGE1” value turned out to be 0.095.
For the compound `CCCC[C@H](C)[C@H](O)/C=C/[C@@H]1[C@H]2CC(CCCCC(=O)OC)S[C@H]2C[C@H]1O` (mixture of isomers) [E, (13E)-(6RS,9α,11α,15S,16S)-6,9-epithio-11,15-dihydroxy-16-methylprost-13-enoic acid methyl ester], the “GUI (Inhibitory activity on gastric ulceration), relative to PGE1” value in the data set on stress ulceration is less than 0.5. In addition, the “BP … relative to PGE1” value in the data set on blood pressure is given as 0.55. Further, in data set [1], the “PAI (Inhibitory activity on blood platelet aggregation), relative to PGE1” value worked out at 0.21. For the same compound, the “UCA … relative to PGE1” value in the data set on uterine contraction is 27.3. Moreover, the “GSI (Inhibitory activity on gastric acid secretion), relative to PGE1” value in the data set with gastric acid secretion is given as less than 0.3. Also, the “Diarrhoea … relative to PGE1” value in the data set with diarrhoea is on record as 0.514.
On to `CCCCC1([C@H](O)/C=C/[C@@H]2[C@H]3CC(CCCCC(=O)OC)S[C@H]3C[C@H]2O)CCC1` (stereo partly drawn) [C, (13E)-(6RS,9α,11α,15R)-6,9-epithio-11,15-dihydroxy-15-(1-butylcyclobutyl)-16,17,18,19,20-pentanorprost-13-enoic acid methyl ester], for which, in the data set on stress ulceration, the “GUI (Inhibitory activity on gastric ulceration), relative to PGE1” value was less than 0.5. The “BP … relative to PGE1” value with blood pressure is recorded as less than 0.1. Also, the “PAI (Inhibitory activity on blood platelet aggregation), relative to PGE1” value in [1] worked out at 0.011. Besides, in the data set on uterine contraction, the “UCA … relative to PGE1” value is 15.8. This compound also came in with a median lethal dose (LD50) in data set [2] of 100 mg/kg. The “GSI (Inhibitory activity on gastric acid secretion), relative to PGE1” value in the data set with gastric acid secretion is given as 0.3. For the same compound, the “Diarrhoea … relative to PGE1” value in the data set with diarrhoea is less than 0.02.
As for `CCCCC[C@H](O)/C=C/[C@H]1[C@H](O)CC(=O)[C@@H]1CCCCCCC(=O)O` [PGE1, reference compound], the “BP … relative to PGE1” value in the data set with blood pressure is 1. The “UCA … relative to PGE1” value in the data set with uterine contraction stood at 1. Besides, the “GSI (Inhibitory activity on gastric acid secretion), relative to PGE1” value in the data set on gastric acid secretion is 1. Further, in the data set on diarrhoea, the “Diarrhoea … relative to PGE1” value is 1.
Take `CCCCC[C@H](O)/C=C/[C@@H]1[C@H]2C/C(=C/CCCC(=O)OC)O[C@H]2C[C@H]1O` [PGI2 methyl ester, reference compound]: the “BP … relative to PGE1” value in the data set on blood pressure worked out at 20. Moreover, the “PAI (Inhibitory activity on blood platelet aggregation), relative to PGE1” value in data set [1] turned out to be 85. For the same compound, the “UCA … relative to PGE1” value in the data set on uterine contraction was found to be 0.5. For the same compound, the “Diarrhoea … relative to PGE1” value in the data set with diarrhoea is recorded as less than 0.1.
As to `CCCCC[C@H](O)/C=C/[C@@H]1[C@H]2C/C(=C/CCCC(=O)O)O[C@H]2C[C@H]1O` [PGI2, (5Z,13E)-(9α,11α,15S)-6,9-epoxy-11,15-dihydroxyprosta-5,13-dienoic acid], the “activity on the artery” value with artery is reported as “relaxing activity on the artery”. Moreover, in [8], the “inhibition of arachidonic acid-induced blood platelet aggregation” value is on record as “strongly inhibits”.
Regarding `CCCCC[C@H](O)/C=C/[C@@H]1[C@H]2CC(CCCCC(=O)O)S[C@H]2C[C@H]1O` (stereo partly shown) [sodium salt], the “activity on human blood platelet aggregation” value in data set [6] was “inhibitory activity on human blood platelet aggregation”. Moreover, the “activity on isolated cat coronary artery” value in [7] is given as “vasoconstricting activity on isolated cat coronary artery”.
Regarding `CCCCC[C@H](O)/C=C/[C@H]1O[C@H]2C[C@H](O2)[C@@H]1C/C=C\CCCC(=O)O` [thromboxane A2], in the data set with artery, the “activity on the artery” value is on record as “contracting activity on the artery”. Further, the “activity on blood platelets” value in the data set on blood platelets is on record as “aggregating activity on blood platelets”.
